# Tested on: auditory nerve
# Experimental: Pigmented guinea pigs of similar weight (350-360 g) were anaesthetised with the neurolept anaesthetic technique (0.06 mg/kg body weight atropine sulphate s.c., 30 mg/kg pentobarbitone i.p., 500 μl/kg Hypnorm i.m.). Additional injections of Hypnorm were given every 40 minutes. Additional doses of pentobarbitone were administered as needed to maintain a non-reflexive state. The heart rate was monitored with a pair of skin electrodes placed on both sides of the thorax. The animals were tracheotomized and artificially respired, and their core temperature was maintained at 38° C. with a heating blanket and a heated head holder.
# The middle ear cavity of the ear used for the measurements was opened to reveal the round window. Compound action potentials of the auditory nerve were measured from the cochlear bony ridge in the proximity of the round window membrane using Teflon-coated silver wire coupled to laboratory designed and built extracellular amplifier (James Hartley). Thresholds of the N1 peak of the compound action potentials were estimated visually using 10 ms tone stimuli at a repetition rate of 10 Hz.
# For acoustic stimulation sound was delivered to the tympanic membrane by a closed acoustic system comprising two Bruel and Kjaer 4134½″ microphones for delivering tones and a single Bruel and Kjaer 4133½″ microphone for monitoring sound pressure at the tympanum. The microphones were coupled to the ear canal via 1 cm long, 4 mm diameter tubes to a conical speculum, the 1 mm diameter opening of which was placed about 1 mm from the tympanum. The closed sound system was calibrated in situ for frequencies between 1 and 50 kHz. Known sound pressure levels were expressed in dB SPL re 2×10^−5 Pa. All acoustic stimuli in this work were shaped with raised cosines of 0.5 ms duration at the beginning and at the end of stimulation. White noise for acoustical calibration and tone sequences for auditory stimulation were synthesised by a Data Translation 3010 board at 250 kHz sampling rate and delivered to the microphones through low-pass filters (100 kHz cut-off frequency). Signals from the acoustic measuring amplifier (James Hartley) were digitised at 250 kHz sampling rate using the same board and averaged in the time domain. Experimental control, data acquisition and data analysis were performed using a PC with programmes written in MATLAB.
# The solution was removed from the round window using paper wicks to observe the wash out effect. […]
# In the second experiments, the placement of the same volume of salicylate solution on the round window was followed by stimulation of the ear with oscillating air pressure in the ear canal during a 5-minute period with a consecutive 5-minute period without oscillating air pressure stimulation when the auditory nerve thresholds were measured. […]
smiles,measurement,setting,value
"O=C([O-])c1ccccc1O.[Na+] [salicylate, sodium salicylate]",time after which the salicylate effect saturated,"oscillating pressure 4 Hz in ear canal, total pressure stimulation time, excluding the 5-minute no-pressure periods",15 to 20 min
same,effect of salicylate on the auditory nerve threshold,"passive diffusion, 5 μl of 100 mM on round window, tone frequencies lower than 5 kHz (approximately apical 55% of cochlear length), FIG. 2A",no effect
same,increase of threshold response to pure tones with oscillating pressure versus passive diffusion,"tones 27, 21, 15, 11, 5, 3 and 1 kHz, particularly low frequencies, pooled data of 5 experiments per protocol, FIG. 4",to a far greater extent
same,recovery of compound action potential thresholds after washing out of salicylate from the round window,"washout after 80 min (passive) or 74 min (oscillating pressure), FIG. 2",Partial recovery

# From patent US20220304862A1, “Method And Device For Substance Delivery To The Inner Ear” (UNIVERSITY OF BRIGHTON, priority 2019, published 2022)
